Data as given in patent US11427567B2, “Imidazolyl pyrimidinylamine compounds as CDK2 inhibitors” (Incyte Corporation, priority 2019, dated 2022).

Molecular target: CDK2/Cyclin E1 (Homo sapiens (Human), UniProt P24941)
Experiment: CDK2/Cyclin E1 HTRF enzyme activity assay (Example A)
Type: biochemical
Settings: 1 mM ATP
Method: Assays were conducted in white 384-well polystyrene plates in a final reaction volume of 8 μL. […] HTRF signals were read after 1 hour at room temperature on a PHERAstar FS plate reader (BMG Labtech). Data was analyzed with IDBS XLFit and GraphPad Prism 5.0 software using a three or four parameter dose response curve to determine IC50 for each compound.

IC50, ≤ 50 nM:
CN(C)Cc1ccc(-n2cnc(-c3nc(NC4CCN(S(C)(=O)=O)CC4)ncc3C(F)(F)F)c2)c(F)c1 [Example 267, 4-(1-(4-((Dimethylamino)methyl)-2-fluorophenyl)-1H-imidazol-4-yl)-N-(1-(methylsulfonyl)piperidin-4-yl)-5-(trifluoromethyl)pyrimidin-2-amine]
CS(=O)(=O)N1CCC(Nc2ncc(C(F)(F)F)c(-c3cn(-c4cccc(CN5CC(C#N)C5)c4C(F)(F)F)cn3)n2)CC1 [Example 470, 1-(3-(4-(2-((1-(Methylsulfonyl)piperidin-4-yl)amino)-5-(trifluoromethyl)pyrimidin-4-yl)-1H-imidazol-1-yl)-2-(trifluoromethyl)benzyl)azetidine-3-carbonitrile]
CS(=O)(=O)N1CCC(Nc2ncc(C(F)(F)F)c(-c3cn(-c4cccc(C#N)c4Cl)cn3)n2)CC1 [Example 58, 2-Chloro-3-(4-(2-((1-(methylsulfonyl)piperidin-4-yl)amino)-5-(trifluoromethyl)pyrimidin-4-yl)-1H-imidazol-1-yl)benzonitrile]
Cc1nc(-c2nc(NC3CCN(S(C)(=O)=O)CC3)ncc2C(F)(F)F)cn1-c1ccc(N2CCN(C)CC2)cc1F [Example 103, 4-(1-(2-Fluoro-4-(4-methylpiperazin-1-yl)phenyl)-2-methyl-1H-imidazol-4-yl)-N-(1-(methylsulfonyl)piperidin-4-yl)-5-(trifluoromethyl)pyrimidin-2-amine]
CN1CCN(c2ccc(-n3cnc(-c4nc(NC5CCN(S(C)(=O)=O)CC5)ncc4C(F)(F)F)c3)c(Cl)c2)CC1 [Example 148, 4-(1-(2-Chloro-4-(4-methylpiperazin-1-yl)phenyl)-1H-imidazol-4-yl)-N-(1-(methylsulfonyl)-piperidin-4-yl)-5-(trifluoromethyl)-pyrimidin-2-amine]
CC1(O)CN(CCc2cccc(-n3cnc(-c4nc(NC5CCN(S(C)(=O)=O)CC5)ncc4C(F)(F)F)c3)c2Cl)C1 [Example 372, 1-(2-Chloro-3-(4-(2-((1-(methylsulfonyl)piperidin-4-yl)amino)-5-(trifluoromethyl)pyrimi-din-4-yl)-1H-imidazol-1-yl)phenethyl)-3-methylazetidin-3-ol]
Cc1nc(-c2nc(N[C@H]3CCN(S(C)(=O)=O)C[C@H]3F)ncc2C(F)(F)F)cn1-c1ccc(C#N)cc1F [Example 299, 3-Fluoro-4-(4-(2-(((3R,4S)-3-fluoro-1-(methylsulfonyl)piperidin-4-yl)amino)-5-(trifluoromethyl)pyrimidin-4-yl)-2-methyl-1H-imidazol-1-yl)benzonitrile]
CC(C)(O)Cn1cnc(-c2nc(N[C@@H]3CCN(S(=O)(=O)C4CC4)C[C@H]3F)ncc2C(F)(F)F)c1 [Example 333, 1-(4-(2-(((3R,4R)-1-(Cyclopropylsulfonyl)-3-fluoropiperidin-4-yl)amino)-5-4-yl)-1H-imidazol-1-yl)-2-methylpropan-2-ol]
Cc1nc(-c2nc(N[C@H]3CCN(S(C)(=O)=O)C[C@H]3F)ncc2C(F)(F)F)cn1-c1ccnc(C#N)c1F [Example 310, 3-Fluoro-4-(4-(2-(((3R,4S)-3-fluoro-1-(methylsulfonyl)piperidin-4-yl)amino)-5-(trifluoromethyl)pyrimidin-4-yl)-2-methyl-1H-imidazol-1-yl)picolinonitrile]
CS(=O)(=O)N1CCC(Nc2ncc(C(F)(F)F)c(-c3cn(-c4cccc(CCN5CCC5)c4Cl)cn3)n2)CC1 [Example 373, 4-(1-(3-(2-(Azetidin-1-yl)ethyl)-2-chlorophenyl)-1H-imidazol-4-yl)-N-(1-(methylsulfonyl)piperidin-4-yl)-5-(trifluoromethyl)pyrimi-din-2-amine]
Cc1nc(-c2nc(NC3CCN(S(C)(=O)=O)CC3)ncc2C(F)(F)F)cn1-c1ccc(N2CC3(CCN(C)CC3)C2)cc1F [Example 104, 4-(1-(2-Fluoro-4-(7-methyl-2,7-diazaspiro[3.5]-nonan-2-yl)phenyl)-2-methyl-1H-imidazol-4-yl)-N-(1-(methylsulfonyl)-piperidin-4-yl)-5-(trifluoromethyl)-pyrimidin-2-amine]
COCCNc1ccc(-n2cnc(-c3nc(NC4CCN(S(C)(=O)=O)CC4)ncc3C(F)(F)F)c2)c(Cl)c1 [Example 144, 4-(1-(2-Chloro-4-((2-methoxyethyl)-amino)phenyl)-1H-imidazol-4-yl)-N-(1-(methylsulfonyl)-piperidin-4-yl)-5-(trifluoromethyl)-pyrimidin-2-amine]
Cc1nc(-c2nc(NC3CCN(S(C)(=O)=O)CC3)ncc2C(F)(F)F)cn1-c1ccc(CCCN2CCC2)cc1F [Example 459, 4-(1-(4-(3-(Azetidin-1-yl)propyl)-2-fluorophenyl)-2-methyl-1H-imidazol-4-yl)-N-(1-(methylsulfonyl)piperidin-4-yl)-5-(trifluoromethyl)pyrimidin-2-amine]
CN(C)CCOc1ccc(-n2cnc(-c3nc(NC4CCN(S(C)(=O)=O)CC4)ncc3C(F)(F)F)c2)c(C(F)(F)F)n1 [Example 72, 4-(1-(6-(2-(Dimethylamino)ethoxy)-2-(trifluoromethyl)pyridin-3-yl)-1H-imidazol-4-yl)-N-(1-(methylsulfonyl)piperidin-4-yl)-5-(trifluoromethyl)pyrimidin-2-amine]
CN1CC(c2ccc(-n3cnc(-c4nc(NC5CCN(S(C)(=O)=O)CC5)ncc4C(F)(F)F)c3)c(Cl)c2)C1 [Example 440, 4-(1-(2-Chloro-4-(1-methylazetidin-3-yl)phenyl)-1H-imidazol-4-yl)-N-(1-(methylsulfonyl)piperidin-4-yl)-5-(trifluoromethyl)pyrimidin-2-amine]
CS(=O)(=O)N1CCC(Nc2ncc(C(F)(F)F)c(-c3cn(-c4ccc5cccnc5c4Br)cn3)n2)CC1 [Example 163, 4-(1-(8-Bromoquinolin-7-yl)-1H-imidazol-4-yl)-N-(1-(methyl-sulfonyl)piperidin-4-yl)-5-(trifluoromethyl)-pyrimidin-2-amine]
CS(=O)(=O)N1CCC(Nc2ncc(C(F)(F)F)c(-c3cn(-c4ccc(CN5CC6CCC5CO6)cc4Cl)cn3)n2)CC1 (stereo not shown) [Example 216, 4-(1-(4-((2-Oxa-5-azabicyclo[2.2.2]-octan-5-yl)methyl)-2-chlorophenyl)-1H-imidazol-4-yl)-N-(1-(methylsulfonyl)-piperidin-4-yl)-5-(trifluoromethyl)-pyrimidin-2-amine]
CN1CCN(Cc2ccc(-n3cnc(-c4nc(NC5CCN(S(C)(=O)=O)CC5)ncc4C(F)(F)F)c3)c(Cl)c2)CC1=O [Example 211, 4-(3-Chloro-4-(4-(2-((1-(methylsulfonyl)-piperidin-4-yl)amino)-5-(trifluoromethyl)-pyrimidin-4-yl)-1H-imidazol-1-yl)benzyl)-1-methylpiperazin-2-one]
CC(=O)NCc1ccc(-n2cnc(-c3nc(NC4CCN(S(C)(=O)=O)CC4)ncc3C(F)(F)F)c2)c(Cl)c1 [Example 185, N-(3-Chloro-4-(4-(2-((1-(methylsulfonyl)piperidin-4-yl)amino)-5-(trifluoromethyl)pyrimidin-4-yl)-1H-imidazol-1-yl)benzyl)acetamide]
